Measured values published in patent US7595398B2, “N-(5-membered aromatic ring)-amido anti-viral compounds” (SmithKline Beecham Corporation, priority 2005, dated 2009).

Test system: HCV replicon I389luc-ubi-neo/NS3-3′/ET in ET (Huh-lucubineo-ET) cells; screening for HCV RNA dependent RNA polymerase
Assay: Replicon Assay (luciferase, ET cell line Huh-lucubineo-ET)
Type: cell-based
Details: Hepatitis C virus; inhibition of replication relative to no compound control; test concentration of 10 μM according to the fitted equation; luciferase 48-72 hours
Summary of the method: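 Huh-derived ET cells stably carrying an I389luc-ubi-neo/NS3-3′/ET HCV replicon with a luciferase-ubiquitin-neomycin phosphotransferase fusion and adaptive NS3-5B mutations were cultured in DMEM with 10% fetal calf serum and 250 μg/mL G418. Cells were seeded at 0.5-1.0×10^4 cells/well in 96 well plates and given compound after 24 hrs. Luciferase was read 48-72 hours later with Bright-Glo reagents, and replication inhibition was expressed relative to untreated controls.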

Structure (SMILES)	inhibition at 10 µM [%]
O=C(NC1CC1)c1ccc(-c2csc(NC(=O)[C@@H]3CCCN3C(=O)OCc3ccccc3)n2)o1 [Compound 5351, 2-[4-(5-Cyclopropylcarbamoyl-furan-2-yl)-thiazol-2-ylcarbamoyl]-pyrrolidine-1-carboxylic acid benzyl ester]	22.3
O=C(NC1CC1)c1ccc(-c2csc(NC(=O)C3COCN3C(=O)OCc3ccccc3)n2)cc1 (centres unmarked) [Compound 5311, 4-[4-(4-Cyclopropylcarbamoyl-phenyl)-thiazol-2-ylcarbamoyl]-oxazolidine-3-carboxylic acid benzyl ester]	99.7
CC(C)(C)OC(=O)N1CCC(NC(=O)c2ccc(-c3csc(NC(=O)[C@@H]4CCCN4C(=O)OCc4ccccc4)n3)cc2)CC1 [Compound 5336, 4-(4-{2-[(1-Benzyloxycarbonyl-pyrrolidine-2-carbonyl)-amino]-thiazol-4-yl}-benzoylamino)-piperidine-1-carboxylic acid tert-butyl ester]	96.3
CC(=O)c1ccc(Cc2cnc(NC(=O)[C@@H]3CCCN3C(=O)OCc3ccccc3)s2)cc1 [Compound 5053, 2-[5-(4-Acetyl-benzyl)-thiazol-2-ylcarbamoyl]-pyrrolidine-1-carboxylic acid benzyl ester]	4.55
Cc1cc(-c2csc(NC(=O)[C@@H]3CCCN3C(=O)OCc3ccccc3)n2)cc(C)c1C [Compound 5062, 2-[4-(3,4,5-Trimethyl-phenyl)-thiazol-2-ylcarbamoyl]-pyrrolidine-1-carboxylic acid benzyl ester]	94.7
O=C(Nc1nc(-c2ccc(C(=O)N3CCOCC3)cc2)cs1)C1CCCN1C(=O)OCc1ccccc1 (centres unmarked) [Compound 5364, 2-{4-[4-(Morpholine-4-carbonyl)-phenyl]-thiazol-2-ylcarbamoyl}-pyrrolidine-1-carboxylic acid benzyl ester]	4.49
O=C(O)c1ccc(-c2csc(NC(=O)[C@@H]3CCCN3C(=O)OCc3ccccc3)n2)cc1 [Compound 5106, 2-[4-(4-Carboxy-phenyl)-thiazol-2-ylcarbamoyl]-pyrrolidine-1-carboxylic acid benzyl ester]	46.3
CC(C)(C)OC(=O)N1CCS[C@H]1C(=O)Nc1nc(-c2ccc(C(=O)NC3CC3)cc2)cs1 [Compound 5334, 2-[4-(4-Cyclopropylcarbamoyl-phenyl)-thiazol-2-ylcarbamoyl]-thiazolidine-3-carboxylic acid tert-butyl ester]	99.9
O=C(Nc1nc(C2CCOCC2)cs1)[C@@H]1CCCN1C(=O)OCc1ccccc1 [Compound 5051, 2-[4-(Tetrahydro-pyran-4-yl)-thiazol-2-ylcarbamoyl]-pyrrolidine-1-carboxylic acid benzyl ester]	3.42
O=C(NC1CC1)c1ccc(-c2csc(NC(=O)C3CCC[C@H]3C(=O)NCc3ccccc3)n2)cc1 (mixture of isomers) [Compound 5340, Cyclopentane-1,2-dicarboxylic acid 1-benzylamide 2-{[4-(4-cyclopropylcarbamoyl-phenyl)-thiazol-2-yl]-amide}]	100
O=C(Nc1nc(-c2ccc3c(c2)OCO3)cs1)[C@@H]1CCCN1C(=O)OCc1ccccc1 [Compound 5002, 2-(4-Benzo[1,3]dioxol-5-yl-thiazol-2-ylcarbamoyl)-pyrrolidine-1-carboxylic acid benzyl ester]	94.7
CC(C)NC(=O)c1ccc(-c2csc(NC(=O)C3CCCN3C(=O)OCc3ccccc3)n2)cc1 (centres unmarked) [Compound 5117, 2-[4-(4-Isopropylcarbamoyl-phenyl)-thiazol-2-ylcarbamoyl]-pyrrolidine-1-carboxylic acid benzyl ester]	99.8
O=C(Nc1ccc(-c2csc(NC(=O)C3CCCN3C(=O)OCc3ccccc3)n2)cc1)c1ccccc1 (centres unmarked) [Compound 5037, 2-[4-(4-Benzoylamino-phenyl)-thiazol-2-ylcarbamoyl]-pyrrolidine-1-carboxylic acid benzyl ester]	100
O=C(NC1CC1)c1ccc(-c2csc(NC(=O)[C@@H]3CCCN3C(=O)Cc3cc(F)cc(F)c3)n2)cc1 [Compound 5315, 1-[2-(3,5-Difluoro-phenyl)-acetyl]-pyrrolidine-2-carboxylic acid [4-(4-cyclopropylcarbamoyl-phenyl)-thiazol-2-yl]-amide]	99.7
CCNC(=O)c1ccc(-c2csc(NC(=O)[C@@H]3CCCN3C(=O)OCc3ccccc3)n2)cc1 [Compound 5092, 2-[4-(4-Ethylcarbamoyl-phenyl)-thiazol-2-ylcarbamoyl]-pyrrolidine-1-carboxylic acid benzyl ester]	100
CC(C)(C)c1csc(NC(=O)[C@@H]2CCCN2C(=O)OCc2ccccc2)n1 [Compound 5360, 2-(4-tert-Butyl-thiazol-2-ylcarbamoyl)-pyrrolidine-1-carboxylic acid benzyl ester]	54

Test system: not given
Assay: not given
Details: patients treated at currently recommended doses; cited from earlier work

Structure (SMILES)	patients with significant hemolysis
NC(=O)c1ncn([C@@H]2O[C@H](CO)[C@@H](O)[C@H]2O)n1 [Ribavirin]	10-20%
